Molecular target: T1, RARα (Homo sapiens, UniProt P10276)
T1 sequence (P10276 1-462): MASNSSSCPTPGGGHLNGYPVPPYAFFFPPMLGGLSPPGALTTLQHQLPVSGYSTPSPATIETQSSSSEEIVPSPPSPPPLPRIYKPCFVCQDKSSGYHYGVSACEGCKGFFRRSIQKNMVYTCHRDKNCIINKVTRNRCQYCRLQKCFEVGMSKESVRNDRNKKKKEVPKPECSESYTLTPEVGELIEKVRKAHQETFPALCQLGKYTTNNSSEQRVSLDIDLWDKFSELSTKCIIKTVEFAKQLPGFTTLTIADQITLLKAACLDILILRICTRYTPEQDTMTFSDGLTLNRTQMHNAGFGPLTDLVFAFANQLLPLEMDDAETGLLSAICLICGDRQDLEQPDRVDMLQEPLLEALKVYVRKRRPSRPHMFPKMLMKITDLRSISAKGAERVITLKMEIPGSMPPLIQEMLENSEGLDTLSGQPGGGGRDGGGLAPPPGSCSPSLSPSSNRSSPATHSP
Experiment: Ligand Binding Assay, RARα
Text: Other assays described below, measure the ability of the compounds of the present invention to bind to, and/or activate various retinoid receptor subtypes. When in these assays a compound binds to a given receptor subtype and activates the transcription of a reporter gene through that subtype, then the compound is considered an agonist of that receptor subtype. […] In the below described assays the ability of the compounds to bind to RARα, RARβ, RARγ, RXRα, RXRβ and RXRγ receptors, and the ability or inability of the compounds to activate transcription of a reporter gene through these receptor subtypes can be tested.
A holoreceptor transactivation assay and a ligand binding assay which measure the antagonist/agonist like activity of the compounds of the invention, or their ability to bind to the several retinoid receptor subtypes, respectively, are described in published PCT Application No. WO WO93/11755 (particularly on pages 30-33 and 37-41) published on Jun. 24, 1993, the specification of which is also incorporated herein by reference. A description of the holoreceptor transactivation assay is also provided below.
CV1 cells (5,000 cells/well) were transfected with an RAR, reporter plasmid MTV-TREp-LUC (50 ng) along with one of the RAR expression vectors (10 ng) in an automated 96-well format by the calcium phosphate procedure of Heyman et al. Cell 68, 397-406, (1992). […]

CO/N=C1\CCC(C)(C)c2ccc(/N=N/c3ccc(C(=O)O)cc3)cc21 [Compound D4]
Kd: 1000 nM
